The source made the active and inactive calls. The rule behind the calls is not given here.
Experiments:
CDK9/cyclin T1 = CDK9/cyclin T1 (Homo sapiens, UniProt P50750); experiment: Inhibition of CDK9/Cyclin T1 (unknown origin) preincubated with enzyme for 10 mins followed by substrate and ATP addition measured after 60 mins by ADP-Glo reagent based assay; assay type: protein-complex assay
[1] = Plasma protein binding in human assessed as bound fraction at 1 uM incubated for 5 hrs by LC-MS/MS analysis; assay type: ADME, cell-free; settings: read-out: PPB (converted)
[2] = Permeability of compound at pH 7.4 at 10 uM incubated for 16 hrs by PAMPA-BBB assay based LC-MS/MS analysis
CYP1A2 = CYP1A2 (Homo sapiens, UniProt P05177); experiment: Inhibition of CYP1A2 in human liver microsomes using phenacetin as substrate at 10 uM preincubated for 10 mins followed by NADPH addition and measured after 40 mins by LC-MS/MS analysis relative to control; assay type: ADME, Microsome; settings: probe phenacetin, time 50 min
CYP2C9 = CYP2C9 (Homo sapiens, UniProt P11712); experiment: Inhibition of CYP2C9 in human liver microsomes using diclofenac as substrate at 10 uM preincubated for 10 mins followed by NADPH addition and measured after 40 mins by LC-MS/MS analysis relative to control; assay type: ADME, Microsome; settings: probe diclofenac, time 50 min
CYP2C9, sequence (P11712 whole entry): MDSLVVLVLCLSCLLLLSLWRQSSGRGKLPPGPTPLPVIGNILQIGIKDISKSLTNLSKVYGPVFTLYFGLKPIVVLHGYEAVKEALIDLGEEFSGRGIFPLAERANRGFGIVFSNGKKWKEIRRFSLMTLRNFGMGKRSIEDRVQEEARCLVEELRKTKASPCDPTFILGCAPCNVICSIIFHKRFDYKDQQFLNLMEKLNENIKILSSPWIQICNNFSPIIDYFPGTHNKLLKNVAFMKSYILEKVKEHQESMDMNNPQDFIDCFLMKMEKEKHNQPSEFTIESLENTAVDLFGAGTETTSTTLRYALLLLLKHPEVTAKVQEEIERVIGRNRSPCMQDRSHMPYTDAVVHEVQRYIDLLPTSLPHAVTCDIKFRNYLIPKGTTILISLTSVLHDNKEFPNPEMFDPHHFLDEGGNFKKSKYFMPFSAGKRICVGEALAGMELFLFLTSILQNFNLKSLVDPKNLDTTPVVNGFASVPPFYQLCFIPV

CYP3A4 [3] = biological target: T1, CYP3A4 (Homo sapiens, UniProt P08684); experiment: Inhibition of CYP3A4 in human liver microsomes using midazolam as substrate at 10 uM preincubated for 10 mins followed by NADPH addition and measured after 40 mins by LC-MS/MS analysis relative to control; assay type: ADME, Microsome; settings: probe midazolam, time 50 min
T1 sequence (P08684 whole entry): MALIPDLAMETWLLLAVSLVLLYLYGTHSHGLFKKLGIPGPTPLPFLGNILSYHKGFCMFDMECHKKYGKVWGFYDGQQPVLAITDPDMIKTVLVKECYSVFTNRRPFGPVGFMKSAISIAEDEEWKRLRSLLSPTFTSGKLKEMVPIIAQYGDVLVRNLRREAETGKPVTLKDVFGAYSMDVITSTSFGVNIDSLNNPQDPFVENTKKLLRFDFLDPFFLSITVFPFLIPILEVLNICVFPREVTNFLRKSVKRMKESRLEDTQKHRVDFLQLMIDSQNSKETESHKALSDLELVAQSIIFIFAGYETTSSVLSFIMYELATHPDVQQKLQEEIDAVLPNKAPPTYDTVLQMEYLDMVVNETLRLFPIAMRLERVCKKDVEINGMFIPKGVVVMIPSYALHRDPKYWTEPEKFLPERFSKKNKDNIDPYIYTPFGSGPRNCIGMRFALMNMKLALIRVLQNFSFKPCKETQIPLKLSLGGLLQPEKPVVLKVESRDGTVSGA

[4] = AUC (0 to t) in Sprague-Dawley rat at 2 mg/kg,iv measured upto 24 hrs by LC-MS/MS analysis; assay type: ADME, organism-based; settings: in vivo
[5] = Half life in Sprague-Dawley rat at 10 mg/kg,po measured upto 24 hrs by LC-MS/MS analysis; assay type: ADME, organism-based; settings: in vivo
[6] = Cmax in Sprague-Dawley rat at 2 mg/kg,iv measured upto 24 hrs by LC-MS/MS analysis; assay type: ADME, organism-based; settings: in vivo
[7] = Cmax in Sprague-Dawley rat at 10 mg/kg,po measured upto 24 hrs by LC-MS/MS analysis; assay type: ADME, organism-based; settings: in vivo
[8] = Drug concentration in Sprague-Dawley rat plasma at 10 mg/kg,po measured after 4 hrs by LC-MS/MS analysis; assay type: ADME, organism-based
[9] = Drug concentration in Sprague-Dawley rat plasma at 10 mg/kg,po measured after 6 hrs by LC-MS/MS analysis; assay type: ADME, organism-based
[10] = Drug concentration in Sprague-Dawley rat brain at 10 mg/kg,po measured after 1 hr by LC-MS/MS analysis; assay type: ADME, organism-based; settings: read-out: Ct
Cytochrome P450 2C9 = Cytochrome P450 2C9 (Homo sapiens, UniProt P11712); experiment: Inhibition of CYP2C9 in human liver microsomes using diclofenac as substrate preincubated for 10 mins followed by NADPH addition and measured after 40 mins by LC-MS/MS analysis; assay type: ADME, Microsome
Cytochrome P450 2C9, sequence (P11712 whole entry): as the sequence (P11712 whole entry) above

Cytochrome P450 2C19 = Cytochrome P450 2C19 (Homo sapiens, UniProt P33261); experiment: Inhibition of CYP2C19 in human liver microsomes using mephenytoin as substrate preincubated for 10 mins followed by NADPH addition and measured after 40 mins by LC-MS/MS analysis; assay type: ADME, Microsome
Cytochrome P450 2C19, sequence (P33261 whole entry): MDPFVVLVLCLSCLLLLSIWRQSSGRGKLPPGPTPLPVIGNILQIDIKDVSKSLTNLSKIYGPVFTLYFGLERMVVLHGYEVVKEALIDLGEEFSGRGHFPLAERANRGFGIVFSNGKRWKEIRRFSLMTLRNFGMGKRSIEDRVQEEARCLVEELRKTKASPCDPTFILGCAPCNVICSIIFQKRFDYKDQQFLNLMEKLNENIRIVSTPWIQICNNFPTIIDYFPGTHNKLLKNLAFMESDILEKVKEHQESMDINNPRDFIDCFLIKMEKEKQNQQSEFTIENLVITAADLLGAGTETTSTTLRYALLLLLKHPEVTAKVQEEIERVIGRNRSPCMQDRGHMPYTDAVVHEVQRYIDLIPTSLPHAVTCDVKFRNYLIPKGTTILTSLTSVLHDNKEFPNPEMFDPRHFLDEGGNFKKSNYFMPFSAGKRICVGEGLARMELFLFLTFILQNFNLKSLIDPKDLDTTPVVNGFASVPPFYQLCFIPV

[11] = biological target: T2, Dual specificity tyrosine-phosphorylation-regulated kinase 1B (Homo sapiens, UniProt Q9Y463); experiment: Inhibition of DYRK1B (unknown origin) preincubated with enzyme for 10 mins followed by substrate and ATP addition measured after 60 mins by ADP-Glo reagent based assay
Target sequence in this assay (Q9Y463 whole entry): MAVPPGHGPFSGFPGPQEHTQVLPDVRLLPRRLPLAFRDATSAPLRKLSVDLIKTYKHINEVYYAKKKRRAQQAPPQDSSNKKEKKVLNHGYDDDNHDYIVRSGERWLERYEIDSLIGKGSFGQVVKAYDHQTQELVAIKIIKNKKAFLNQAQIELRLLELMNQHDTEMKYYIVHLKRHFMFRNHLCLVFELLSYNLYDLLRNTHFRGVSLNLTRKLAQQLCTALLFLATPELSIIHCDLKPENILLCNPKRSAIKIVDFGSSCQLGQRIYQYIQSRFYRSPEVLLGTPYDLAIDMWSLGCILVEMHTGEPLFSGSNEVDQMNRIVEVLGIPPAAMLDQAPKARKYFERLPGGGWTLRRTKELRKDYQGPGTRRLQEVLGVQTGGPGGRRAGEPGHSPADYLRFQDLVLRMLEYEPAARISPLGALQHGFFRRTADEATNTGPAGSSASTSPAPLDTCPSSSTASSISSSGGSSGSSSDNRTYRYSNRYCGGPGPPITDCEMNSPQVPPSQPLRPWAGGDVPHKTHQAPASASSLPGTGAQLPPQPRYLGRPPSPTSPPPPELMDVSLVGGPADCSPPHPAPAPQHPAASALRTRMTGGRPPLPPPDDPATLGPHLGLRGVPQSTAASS

[12] = biological target: Dual specificity protein kinase CLK1 (Homo sapiens, UniProt P49759); experiment: Inhibition of CLK1 (unknown origin) preincubated with enzyme for 10 mins followed by substrate and ATP addition measured after 60 mins by ADP-Glo reagent based assay
Dual specificity protein kinase CLK1, sequence (P49759 whole entry): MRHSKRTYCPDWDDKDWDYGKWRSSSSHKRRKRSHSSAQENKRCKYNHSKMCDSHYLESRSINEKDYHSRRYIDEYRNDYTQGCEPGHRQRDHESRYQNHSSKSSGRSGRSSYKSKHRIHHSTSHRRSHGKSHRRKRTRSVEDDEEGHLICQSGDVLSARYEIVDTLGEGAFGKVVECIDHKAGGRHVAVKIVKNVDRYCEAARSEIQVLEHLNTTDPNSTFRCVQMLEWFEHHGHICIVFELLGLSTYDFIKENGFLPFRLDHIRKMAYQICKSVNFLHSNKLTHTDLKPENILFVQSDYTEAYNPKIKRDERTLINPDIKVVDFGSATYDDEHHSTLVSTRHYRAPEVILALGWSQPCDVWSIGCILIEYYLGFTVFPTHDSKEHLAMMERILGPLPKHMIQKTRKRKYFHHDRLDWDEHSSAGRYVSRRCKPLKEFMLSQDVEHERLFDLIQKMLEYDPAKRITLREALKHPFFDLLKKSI

[13] = biological target: Dual specificity protein kinase CLK3 (Homo sapiens, UniProt P49761); experiment: Inhibition of CLK3 (unknown origin) preincubated with enzyme for 10 mins followed by substrate and ATP addition measured after 60 mins by ADP-Glo reagent based assay
[14] = biological target: T2, Dual specificity tyrosine-phosphorylation-regulated kinase 1B; experiment: Inhibition of DYRK1B (unknown origin) at 1 uM preincubated with enzyme for 10 mins followed by substrate and ATP addition measured after 60 mins by ADP-Glo reagent based assay relative to control; settings: time 70.0 min
Target sequence in this assay (Q9Y463 whole entry, looked up): as the sequence (Q9Y463 whole entry) above

SH-SY5Y = experiment: Cytotoxicity against human SH-SY5Y cells expressing human Tau P301L mutant at 20 uM incubated for 24 hrs by MTT assay; assay type: functional, cell-based
[15] = Acute toxicity in C57BL/6 mouse assessed as change in body weight at 500 mg/kg,po observed after 14 days; assay type: organism-based; settings: in vivo, 336 h, time 14 day
[16] = Acute toxicity in C57BL/6 mouse assessed as change in lung weight at 500 mg/kg,po observed after 14 days; assay type: organism-based; settings: in vivo, 336 h, time 14 day
[17] = Acute toxicity in C57BL/6 mouse assessed as histopathological change in heart at 500 mg/kg,po observed after 14 days by hematoxylin-eosin staining based analysis; assay type: organism-based; settings: in vivo, 336 h, time 14 day
[18] = Acute toxicity in C57BL/6 mouse assessed as histopathological change in lung at 500 mg/kg,po observed after 14 days by hematoxylin-eosin staining based analysis; assay type: organism-based; settings: in vivo, 336 h, time 14 day
[19] = Acute toxicity in C57BL/6 mouse assessed as histopathological change in kidney at 500 mg/kg,po observed after 14 days by hematoxylin-eosin staining based analysis; assay type: organism-based; settings: in vivo, 336 h, time 14 day
Mus musculus [20] = experiment: Antialzheimer activity in okadaic acid-induced cognitive impairment C57BL/6 mouse assessed as decrease in escape latency at 10 to 30 mg/kg,po once daily for 2 weeks by Morris water maze test; assay type: functional, organism-based; settings: dose 10-30 mg/kg
Mus musculus [21] = experiment: Antialzheimer activity in okadaic acid-induced cognitive impairment C57BL/6 mouse assessed as downregulation of Tau phosphorylation at Thr212 residue in hippocampal CA1 region at 10 to 30 mg/kg,po once daily for 2 weeks by immunohistochemical staining analysis; assay type: functional, organism-based; settings: dose 10-30 mg/kg
Mus musculus [22] = experiment: Antialzheimer activity in okadaic acid-induced cognitive impairment C57BL/6 mouse assessed as downregulation of Tau phosphorylation at Thr212 residue in hippocampal DG region at 10 to 30 mg/kg,po once daily for 2 weeks by immunohistochemical staining analysis; assay type: functional, organism-based; settings: dose 10-30 mg/kg
[23] = Toxicity in okadaic acid-induced cognitive impairment C57BL/6 mouse assessed as change in body weight at 10 to 30 mg/kg,po once daily for 2 weeks; assay type: organism-based; settings: in vivo, 336 h, dose 10-30 mg/kg
[24] = Toxicity in okadaic acid-induced cognitive impairment C57BL/6 mouse assessed as change in serum AST level at 10 to 30 mg/kg,po once daily for 2 weeks; assay type: organism-based; settings: in vivo, 336 h, dose 10-30 mg/kg
[25] = Toxicity in okadaic acid-induced cognitive impairment C57BL/6 mouse assessed as change in serum ALT level at 10 to 30 mg/kg,po once daily for 2 weeks; assay type: organism-based; settings: in vivo, 336 h, dose 10-30 mg/kg
[26] = Toxicity in okadaic acid-induced cognitive impairment C57BL/6 mouse assessed as change in serum GSH level at 10 to 30 mg/kg,po once daily for 2 weeks; assay type: organism-based; settings: in vivo, 336 h, dose 10-30 mg/kg
[27] = Toxicity in okadaic acid-induced cognitive impairment C57BL/6 mouse assessed as change in serum CRE level at 10 to 30 mg/kg,po once daily for 2 weeks; assay type: organism-based; settings: in vivo, 336 h, dose 10-30 mg/kg
CYP3A4 [28] = biological target: T1, CYP3A4; experiment: Inhibition of CYP3A4 in human liver microsomes using testosterone as substrate at 10 uM preincubated for 10 mins followed by NADPH addition and measured after 40 mins by LC-MS/MS analysis relative to control; assay type: ADME, Microsome; settings: probe testosterone, time 50 min

CDK9/cyclin T1, sequence (O60563 whole entry): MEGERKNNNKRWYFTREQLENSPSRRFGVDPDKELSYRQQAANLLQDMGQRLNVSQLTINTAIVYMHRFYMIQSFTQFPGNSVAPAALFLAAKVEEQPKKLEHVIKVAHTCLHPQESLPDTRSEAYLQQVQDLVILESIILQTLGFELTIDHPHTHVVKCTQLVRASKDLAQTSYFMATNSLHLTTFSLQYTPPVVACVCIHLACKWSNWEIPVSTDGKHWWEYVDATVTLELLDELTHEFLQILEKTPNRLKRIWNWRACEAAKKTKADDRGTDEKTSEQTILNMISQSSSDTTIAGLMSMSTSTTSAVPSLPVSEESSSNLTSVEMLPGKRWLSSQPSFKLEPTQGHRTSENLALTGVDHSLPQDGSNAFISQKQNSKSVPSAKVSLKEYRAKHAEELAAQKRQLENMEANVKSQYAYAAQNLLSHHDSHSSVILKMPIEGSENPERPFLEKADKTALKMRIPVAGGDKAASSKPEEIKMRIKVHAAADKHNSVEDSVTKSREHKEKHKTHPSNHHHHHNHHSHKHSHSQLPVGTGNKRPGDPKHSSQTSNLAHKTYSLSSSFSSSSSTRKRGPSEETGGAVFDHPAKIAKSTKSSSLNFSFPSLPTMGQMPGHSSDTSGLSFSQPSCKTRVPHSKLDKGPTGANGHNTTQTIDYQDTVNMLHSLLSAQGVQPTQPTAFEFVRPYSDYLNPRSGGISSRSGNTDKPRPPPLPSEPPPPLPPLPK
CDK9/cyclin T1, sequence (P50750 whole entry): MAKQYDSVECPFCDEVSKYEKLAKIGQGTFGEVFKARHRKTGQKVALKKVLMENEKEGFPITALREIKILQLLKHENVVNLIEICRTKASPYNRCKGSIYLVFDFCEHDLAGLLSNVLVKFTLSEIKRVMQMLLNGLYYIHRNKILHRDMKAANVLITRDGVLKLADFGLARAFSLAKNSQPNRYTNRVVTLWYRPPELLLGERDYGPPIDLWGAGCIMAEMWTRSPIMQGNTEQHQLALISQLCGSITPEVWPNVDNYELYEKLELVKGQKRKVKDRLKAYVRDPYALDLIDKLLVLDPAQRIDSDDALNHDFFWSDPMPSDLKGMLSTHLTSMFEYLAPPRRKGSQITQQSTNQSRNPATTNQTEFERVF

With Cc1ccc2c(-c3ccc4ncnc(N[C@H](CO)c5ccccc5)c4c3)c[nH]c2n1 the IC50 (CDK9/cyclin T1) was > 10000 nM, the fraction unbound at 5 h, 1 µM [1] was 0.0033 and the Papp at 16 h, 10 µM [2] was 13.4 ×10⁻⁶ cm/s. It also gave an inhibition at 40 min, 10 µM (CYP1A2) of 61.9%, an inhibition at 40 min, 10 µM (CYP2C9) of 96.5% and an inhibition at 40 min, 10 µM (CYP3A4 [3]) of 33.1%. The AUC(0-t) at 24 h [4] was 1500 ng·h/mL, the half-life [5] was 3.95 h and the Cmax [6] was 272 ng/mL. The Cmax [7] was 230 ng/mL, the concentration at 4 h [8] was 254 ng/mL and the concentration at 6 h [9] was 118 ng/mL. It also gave a concentration at 1 h [10] of 26.9 ng/g, an IC50 (Cytochrome P450 2C9) of 240 nM and an IC50 (Cytochrome P450 2C19) of 1030 nM. It also gave an IC50 [11] of 1.02 nM, an IC50 [12] of 1.68 nM and an IC50 [13] of 38.9 nM. For the same compound, the inhibition [14] was 100%, the Activity (SH-SY5Y) was “Active” and the Activity [15] was “Non-Toxic”. For the same compound, the Activity [16] was “Non-Toxic”, the Activity [17] was “Non-Toxic” and the Activity [18] was “Non-Toxic”. The Activity [19] was “Non-Toxic”, the Activity (Mus musculus [20]) was “Active” and the Activity (Mus musculus [21]) was “Active”. For the same compound, the Activity (Mus musculus [22]) was “Active”, the Activity [23] was “Non-Toxic” and the Activity [24] was “Non-Toxic”. For the same compound, the Activity [25] was “Non-Toxic”, the Activity [26] was “Non-Toxic” and the Activity [27] was “Non-Toxic”. For the same compound, the inhibition at 40 min, 10 µM (CYP3A4 [28]) was 63.3%.

Reference: ChEMBL document CHEMBL5550204, “Discovery of ZJCK-6-46: A Potent, Selective, and Orally Available Dual-Specificity Tyrosine Phosphorylation-Regulated Kinase 1A Inhibitor for the Treatment of Alzheimer's Disease” (J Med Chem, 2024)
